Assay results reported in PubChem BioAssay (NCI).
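Five compound concentrations were applied to cells in 96-well plates for 48 hours; endpoints were derived by simple linear interpolation of the resulting dose-response curve. Abbreviation: GI50, concentration required for 50% inhibition of growth. TGI: total growth inhibition.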

Experiments:
Assay in all cases: NCI tumour cell line growth inhibition, 48 h
RPMI-8226 leukemia = test system: RPMI-8226 leukemia
NCI-H226 lung = test system: NCI-H226 lung
SK-MEL-2 melanoma = test system: SK-MEL-2 melanoma
IGROV1 ovarian = test system: IGROV1 ovarian
PC-3 prostate = test system: PC-3 prostate
HOP-92 NSCLC = test system: HOP-92 NSCLC
SN12C renal = test system: SN12C renal
CAKI-1 renal = test system: CAKI-1 renal
NCI-H460 lung = test system: NCI-H460 lung
HS 578T breast = test system: HS 578T breast
BT-549 breast = test system: BT-549 breast
KM12 colon = test system: KM12 colon
OVCAR-3 ovarian = test system: OVCAR-3 ovarian
786-0 renal = test system: 786-0 renal
OVCAR-4 ovarian = test system: OVCAR-4 ovarian
SW-620 colon = test system: SW-620 colon
NCI-H522 lung = test system: NCI-H522 lung
SR leukemia = test system: SR leukemia
NCI-H23 lung = test system: NCI-H23 lung
SK-MEL-5 melanoma = test system: SK-MEL-5 melanoma
K-562 leukemia = test system: K-562 leukemia
UO-31 renal = test system: UO-31 renal
HCT-15 colon = test system: HCT-15 colon
HL-60(TB) leukemia = test system: HL-60(TB) leukemia
SNB-75 CNS = test system: SNB-75 CNS
SF-539 CNS = test system: SF-539 CNS
HT29 colon = test system: HT29 colon
SF-295 CNS = test system: SF-295 CNS
RXF 393 renal = test system: RXF 393 renal
SF-268 CNS = test system: SF-268 CNS
A549 NSCLC = test system: A549 NSCLC
SK-MEL-28 melanoma = test system: SK-MEL-28 melanoma
HCC-2998 colon = test system: HCC-2998 colon
A498 renal = test system: A498 renal
UACC-62 melanoma = test system: UACC-62 melanoma
OVCAR-8 ovarian = test system: OVCAR-8 ovarian
COLO 205 colon = test system: COLO 205 colon
OVCAR-5 ovarian = test system: OVCAR-5 ovarian
MOLT-4 leukemia = test system: MOLT-4 leukemia
SK-OV-3 ovarian = test system: SK-OV-3 ovarian
CCRF-CEM leukemia = test system: CCRF-CEM leukemia
HOP-62 NSCLC = test system: HOP-62 NSCLC
MDA-MB-231 breast = test system: MDA-MB-231 breast
NCI/ADR-RES ovarian = test system: NCI/ADR-RES ovarian
LOX IMVI melanoma = test system: LOX IMVI melanoma
TK-10 renal = test system: TK-10 renal
UACC-257 melanoma = test system: UACC-257 melanoma
M14 melanoma = test system: M14 melanoma
SNB-19 CNS = test system: SNB-19 CNS
MDA-MB-435 = test system: MDA-MB-435
EKVX NSCLC = test system: EKVX NSCLC
HCT-116 colon = test system: HCT-116 colon
U251 CNS = test system: U251 CNS
MALME-3M melanoma = test system: MALME-3M melanoma
DU-145 prostate = test system: DU-145 prostate
T-47D breast = test system: T-47D breast
ACHN renal = test system: ACHN renal

COCCn1c2c([n+](Cc3cnccn3)c1C)C(=O)c1ccccc1C2=O
GI50 (RPMI-8226 leukemia): < 10 nM
TGI (RPMI-8226 leukemia): < 11.4 nM
GI50 (NCI-H226 lung): < 14.3 nM
TGI (NCI-H226 lung): 29.3 nM
GI50 (SK-MEL-2 melanoma): < 10 nM
TGI (SK-MEL-2 melanoma): 12.7 nM
GI50 (IGROV1 ovarian): < 10 nM
TGI (IGROV1 ovarian): < 16.9 nM
GI50 (PC-3 prostate): < 10 nM
TGI (PC-3 prostate): 35.9 nM
GI50 (HOP-92 NSCLC): 20.9 nM
TGI (HOP-92 NSCLC): 54.9 nM
GI50 (SN12C renal): < 10 nM
TGI (SN12C renal): 31.6 nM
GI50 (CAKI-1 renal): 2720 nM
TGI (CAKI-1 renal): > 100000 nM
GI50 (NCI-H460 lung): 20.8 nM
TGI (NCI-H460 lung): 112 nM
GI50 (HS 578T breast): 302 nM
TGI (HS 578T breast): 10700 nM
GI50 (BT-549 breast): 26.4 nM
TGI (BT-549 breast): 87.6 nM
GI50 (KM12 colon): 37.6 nM
TGI (KM12 colon): 557 nM
GI50 (OVCAR-3 ovarian): < 10 nM
TGI (OVCAR-3 ovarian): < 10 nM
GI50 (786-0 renal): 14.3 nM
TGI (786-0 renal): 99.2 nM
GI50 (OVCAR-4 ovarian): < 10 nM
TGI (OVCAR-4 ovarian): 12 nM
GI50 (SW-620 colon): < 10 nM
TGI (SW-620 colon): 17.6 nM
GI50 (NCI-H522 lung): < 10 nM
TGI (NCI-H522 lung): < 10 nM
GI50 (SR leukemia): < 10.8 nM
TGI (SR leukemia): 6850 nM
GI50 (NCI-H23 lung): < 10 nM
TGI (NCI-H23 lung): < 11.3 nM
GI50 (SK-MEL-5 melanoma): < 10 nM
TGI (SK-MEL-5 melanoma): 16.2 nM
GI50 (K-562 leukemia): < 10 nM
TGI (K-562 leukemia): 5600 nM
GI50 (UO-31 renal): 844 nM
TGI (UO-31 renal): > 78500 nM
GI50 (HCT-15 colon): 251 nM
TGI (HCT-15 colon): > 100000 nM
GI50 (HL-60(TB) leukemia): < 10 nM
TGI (HL-60(TB) leukemia): < 10 nM
GI50 (SNB-75 CNS): 31.3 nM
TGI (SNB-75 CNS): 107 nM
GI50 (SF-539 CNS): < 10 nM
TGI (SF-539 CNS): 33.7 nM
GI50 (HT29 colon): 30.9 nM
TGI (HT29 colon): 111 nM
GI50 (SF-295 CNS): 27 nM
TGI (SF-295 CNS): 84.3 nM
GI50 (RXF 393 renal): 15.6 nM
TGI (RXF 393 renal): 128 nM
GI50 (SF-268 CNS): < 10 nM
TGI (SF-268 CNS): < 10 nM
GI50 (A549 NSCLC): 16.6 nM
TGI (A549 NSCLC): 43.4 nM
GI50 (SK-MEL-28 melanoma): 16.4 nM
TGI (SK-MEL-28 melanoma): 41.9 nM
GI50 (HCC-2998 colon): < 10 nM
TGI (HCC-2998 colon): 37.3 nM
GI50 (A498 renal): 98.7 nM
TGI (A498 renal): 573 nM
GI50 (UACC-62 melanoma): 18.5 nM
TGI (UACC-62 melanoma): 45.4 nM
GI50 (OVCAR-8 ovarian): < 10 nM
TGI (OVCAR-8 ovarian): < 10 nM
GI50 (COLO 205 colon): 23.5 nM
TGI (COLO 205 colon): 62.6 nM
GI50 (OVCAR-5 ovarian): 30.8 nM
TGI (OVCAR-5 ovarian): 129 nM
GI50 (MOLT-4 leukemia): < 10 nM
TGI (MOLT-4 leukemia): 34 nM
GI50 (SK-OV-3 ovarian): 58.8 nM
TGI (SK-OV-3 ovarian): 573 nM
GI50 (CCRF-CEM leukemia): 20.7 nM
TGI (CCRF-CEM leukemia): 345 nM
GI50 (HOP-62 NSCLC): 22.1 nM
TGI (HOP-62 NSCLC): 119 nM
GI50 (MDA-MB-231 breast): < 10 nM
TGI (MDA-MB-231 breast): 13 nM
TGI (NCI/ADR-RES ovarian): > 100000 nM
GI50 (LOX IMVI melanoma): < 10 nM
TGI (LOX IMVI melanoma): < 11.8 nM
GI50 (TK-10 renal): 35.2 nM
TGI (TK-10 renal): 222 nM
GI50 (UACC-257 melanoma): < 10 nM
TGI (UACC-257 melanoma): < 10 nM
GI50 (M14 melanoma): < 12.6 nM
TGI (M14 melanoma): 50.5 nM
GI50 (SNB-19 CNS): < 10 nM
TGI (SNB-19 CNS): 15.3 nM
GI50 (MDA-MB-435): < 10 nM
TGI (MDA-MB-435): < 10 nM
GI50 (EKVX NSCLC): < 10 nM
TGI (EKVX NSCLC): 16.2 nM
GI50 (HCT-116 colon): < 10 nM
TGI (HCT-116 colon): 10.6 nM
GI50 (U251 CNS): < 10 nM
TGI (U251 CNS): < 10 nM
GI50 (MALME-3M melanoma): 126 nM
TGI (MALME-3M melanoma): 316 nM
GI50 (DU-145 prostate): < 10 nM
TGI (DU-145 prostate): 19 nM
GI50 (T-47D breast): 24.6 nM
TGI (T-47D breast): 153 nM
GI50 (ACHN renal): 40 nM
TGI (ACHN renal): 2110 nM
